The results in this text go back to patent US7829560B2, “1,4-disubstituted naphthalenes as inhibitors of P38 MAP kinase” (Arqule, Inc., priority 2004, dated 2010).

Data set [1] concerns TNFα release from THP-1 cells. Briefly: Inhibition of TNFα release from LPS-stimulated THP-1 cells, ELISA. Type of data set: cell-based. The note with it: Homo sapiens, THP-1, THP-1 cells, read-out: [CELL] THP-1, IC50, TNF ALPHA, ELISA. The method, boiled down: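 Human THP-1 monocytes, 10^6 cells/ml in RPMI with 10% FBS, no serum or 1% HSA, preincubated 30 min at 37 °C with compound (≤0.5% DMSO), then stimulated with 10 μg/ml LPS for 18 h. Supernatant TNFα measured by ELISA; IC50 from non-linear dose-response regression.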

The target in a further data set is T1, p38α (Homo sapiens, UniProt Q16539).
T1 construct: p38 MAP Kinases are recombinant human full-length proteins with an amino-terminal GST fusion; GST (N); purchased Upstate Biotechnology Inc; host or cells: E. coli
Briefly: p38 MAP Kinase assay: inhibition of ATF2 phosphorylation, ELISA. Type of data set: biochemical. The conditions noted are these: ATF2 phosphorylation; read-out: [ENZ] P38 ALPHA, IC50, ELISA. A digest of the protocol: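 GST-tagged full-length human p38 MAP kinase with GST-ATF2 (aa 19–96; 1.25 μM) and 40 μM ATP in HEPES pH 7.5 buffer, without (Method I) or with (Method II) 1% human serum albumin. Compound pre-incubated 15 min at room temperature; reaction 30 min at 37 °C; ATF2 Thr69 phosphorylation measured by ELISA (A450).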
Background: An ELISA detects its analyte on a solid surface through an enzyme-linked reagent.

T1 sequence (Q16539 whole entry, the tested form may be a part): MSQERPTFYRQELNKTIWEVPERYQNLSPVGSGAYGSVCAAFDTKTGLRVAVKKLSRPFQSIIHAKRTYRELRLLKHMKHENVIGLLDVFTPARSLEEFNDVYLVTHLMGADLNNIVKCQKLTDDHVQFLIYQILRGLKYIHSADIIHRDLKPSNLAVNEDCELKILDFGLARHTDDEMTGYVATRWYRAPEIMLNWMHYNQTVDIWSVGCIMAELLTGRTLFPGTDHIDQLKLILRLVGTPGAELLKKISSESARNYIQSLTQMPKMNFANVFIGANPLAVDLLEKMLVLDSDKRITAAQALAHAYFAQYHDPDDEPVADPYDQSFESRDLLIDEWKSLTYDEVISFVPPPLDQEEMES

A word on the melting point: it is the temperature of the solid-liquid transition. The IC50 is the concentration that gives 50% inhibition. For the compound `CC1CCN(c2nccc(Oc3ccc(NC(=O)c4cc(F)cc(N5CCCCC5)c4)c4ccccc34)n2)CC1` [Compound B381, 3-Fluoro-N-(4-{[2-(4-methylpiperidin-1-yl)pyrimidin-4-yl]oxy}-1-naphthyl)-5-piperidin-1-ylbenzamide], the melting point lay within 145 to 146 °C. In addition, in data set [1], the IC50 is 0.59 µM. For the same compound, on p38α, the IC50 was determined as 0.0878 µM.

For `O=C(Nc1ccc(Oc2ccnc(NC3CC3)n2)c2ccccc12)c1cc(F)cc(N2CCCCC2)c1` [Compound B382, N-(4-{[2-(Cyclopropylamino)pyrimidin-4-yl]oxy}-1-naphthyl)-3-fluoro-5-piperidin-1-ylbenzamide], the melting point lay within 157 to 158 °C. Moreover, the half-maximal inhibitory concentration (IC50) in data set [1] was 0.185 µM. Besides, the IC50 on p38α is 0.0069 µM.

For the compound `O=C(Nc1ccc(Oc2ccnc(NC3CCC3)n2)c2ccccc12)c1cc(F)cc(N2CCCCC2)c1` [Compound B383, N-(4-{[2-(Cyclobutylamino)pyrimidin-4-yl]oxy}-1-naphthyl)-3-fluoro-5-piperidin-1-ylbenzamide], the melting point lay within 112 to 114 °C. The IC50 in data set [1] is 0.311 µM. The half-maximal inhibitory concentration (IC50) at p38α was 0.0114 µM.

In the case of `O=C(Nc1ccc(Oc2ccnc(NCC3CC3)n2)c2ccccc12)c1cc(F)cc(N2CCCCC2)c1` [Compound B384, N-[4-({2-[(cyclopropylmethyl)amino]pyrimidin-4-yl}oxy)-1-naphthyl]-3-fluoro-5-piperidin-1-ylbenzamide], the melting point fell in the range of 117 to 119 °C. In addition, the IC50 in data set [1] worked out at 0.0903 µM. Moreover, the IC50 at p38α stood at 0.0063 µM.

In turn, `CC(C)N(C)c1nccc(Oc2ccc(NC(=O)c3cc(F)cc(N4CCCCC4)c3)c3ccccc23)n1` [Compound B385, 3-Fluoro-N-[4-({2-[isopropyl(methyl)amino]pyrimidin-4-yl}oxy)-1-naphthyl]-5-piperidin-1-ylbenzamide] displayed a melting point of 102 to 104 °C. For the same compound, the concentration for half-maximal inhibition (IC50) in data set [1] is over 1 µM. Also, the IC50 on p38α came out at 0.0956 µM.

`O=C(Nc1ccc(Oc2ccnc(N3CCC(O)CC3)n2)c2ccccc12)c1cc(F)cc(N2CCCCC2)c1` [Compound B387, 3-Fluoro-N-(4-{[2-(4-hydroxypiperidin-1-yl)pyrimidin-4-yl]oxy}-1-naphthyl)-5-piperidin-1-ylbenzamide] registered a melting point of 182 to 184 °C. The IC50 in data set [1] came out at 0.309 µM. Besides, the IC50 at p38α worked out at 0.0057 µM.

Take `CC1CCC(Nc2nccc(Oc3ccc(NC(=O)c4cc(F)cc(N5CCCCC5)c4)c4ccccc34)n2)CC1` (stereo not drawn) [Compound B388, 3-Fluoro-N-[4-({2-[(4-methylcyclohexyl)amino]pyrimidin-4-yl}oxy)-1-naphthyl]-5-piperidin-1-ylbenzamide]: the melting point was in the range of 101 to 102 °C. In addition, the IC50 in data set [1] stood at 0.103 µM. For the same compound, at p38α, the IC50 was determined as 0.0427 µM.

The compound `O=C(Nc1ccc(Oc2ccnc(NCCN3CCCC3)n2)c2ccccc12)c1cc(F)cc(N2CCCCC2)c1` [Compound B389, 3-Fluoro-5-piperidin-1-yl-N-[4-({2-[(2-pyrrolidin-1-ylethyl)amino]pyrimidin-4-yl}oxy)-1-naphthyl]benzamide] registered a melting point of 92 to 94 °C. The IC50 in data set [1] was found to be 0.089 µM. Further, the IC50 at p38α was 0.0021 µM.

`O=C(Nc1ccc(Oc2ccnc(NCCN3CCCCC3)n2)c2ccccc12)c1cc(F)cc(N2CCCCC2)c1` [Compound B390, 3-Fluoro-5-piperidin-1-yl-N-[4-({2-[(2-piperidin-1-ylethyl)amino]pyrimidin-4-yl}oxy)-1-naphthyl]benzamide] yielded a melting point of 88 to 89 °C. The IC50 in data set [1] came out at 0.115 µM. Further, the IC50 at p38α is 0.003 µM.

Consider `COCC(C)Nc1nccc(Oc2ccc(NC(=O)c3cc(F)cc(N4CCCCC4)c3)c3ccccc23)n1` (stereo not drawn) [Compound B392, 3-Fluoro-N-[4-({2-[(2-methoxy-1-methylethyl)amino]pyrimidin-4-yl}oxy)-1-naphthyl]-5-piperidin-1-ylbenzamide], for which the melting point was 94 to 95 °C. Besides, in data set [1], the concentration for half-maximal inhibition (IC50) was determined as 0.122 µM. For the same compound, the IC50 on p38α came to 0.0071 µM.

Consider `CN1CCCC1CCNc1nccc(Oc2ccc(NC(=O)c3cc(F)cc(N4CCCCC4)c3)c3ccccc23)n1` (stereo not drawn) [Compound B394, 3-Fluoro-N-{4-[(2-{[2-(1-methylpyrrolidin-2-yl)ethyl]amino}pyrimidin-4-yl)oxy]-1-naphthyl}-5-piperidin-1-ylbenzamide], for which the melting point was 112 to 114 °C. For the same compound, in data set [1], the IC50 is 0.0108 µM. Further, at p38α, the IC50 was found to be 0.0007 µM.

Regarding `CN(CC1OCCO1)c1nccc(Oc2ccc(NC(=O)c3cc(F)cc(N4CCCCC4)c3)c3ccccc23)n1` [Compound B395, N-[4-({2-[(1,3-Dioxolan-2-ylmethyl)(methyl)amino]pyrimidin-4-yl}oxy)-1-naphthyl]-3-fluoro-5-piperidin-1-ylbenzamide], the melting point fell in the range of 125 to 127 °C. For the same compound, the IC50 in data set [1] was 0.212 µM. Also, the IC50 at p38α stood at 0.0313 µM.

Consider `CC(C)(C)OC(=O)N1CCN(c2nccc(Oc3ccc(NC(=O)c4cc(F)cc(N5CCCCC5)c4)c4ccccc34)n2)CC1` [Compound B397, tert-Butyl-4-[4-({4-[(3-fluoro-5-piperidin-1-ylbenzoyl)amino]-1-naphthyl}oxy)pyrimidin-2-yl]piperazine-1-carboxylate], for which the melting point was 175 to 177 °C. For the same compound, in data set [1], the IC50 is over 1 µM. The IC50 at p38α was 0.109 µM.

`CCN1CCN(c2nccc(Oc3ccc(NC(=O)c4cc(F)cc(N5CCCCC5)c4)c4ccccc34)n2)CC1` [Compound B398, N-(4-{[2-(4-Ethylpiperazin-1-yl)pyrimidin-4-yl]oxy}-1-naphthyl)-3-fluoro-5-piperidin-1-ylbenzamide] displayed a melting point of 86 to 87 °C. In addition, the half-maximal inhibitory concentration (IC50) in data set [1] is 0.241 µM. Further, the IC50 at p38α is 0.0079 µM.

`CC(=O)N1CCN(c2nccc(Oc3ccc(NC(=O)c4cc(F)cc(N5CCCCC5)c4)c4ccccc34)n2)CC1` [Compound B400, N-(4-{[2-(4-Acetylpiperazin-1-yl)pyrimidin-4-yl]oxy}-1-naphthyl)-3-fluoro-5-piperidin-1-ylbenzamide] yielded a melting point of 102 to 104 °C. The concentration for half-maximal inhibition (IC50) in data set [1] is 0.565 µM. Besides, the IC50 at p38α worked out at 0.0074 µM.

`O=C(Nc1ccc(Oc2ccnc(N3CCCC(O)C3)n2)c2ccccc12)c1cc(F)cc(N2CCCCC2)c1` (stereo not drawn) [Compound B402, 3-Fluoro-N-(4-{[2-(3-hydroxypiperidin-1-yl)pyrimidin-4-yl]oxy}-1-naphthyl)-5-piperidin-1-ylbenzamide] came in with a melting point of 93 to 95 °C. In data set [1], the IC50 worked out at 0.655 µM. For the same compound, the IC50 on p38α worked out at 0.0146 µM.

In the case of `COC(CN(C)c1nccc(Oc2ccc(NC(=O)c3cc(F)cc(N4CCCCC4)c3)c3ccccc23)n1)OC` [Compound B403, N-[4-({2-[(2,2-Dimethoxyethyl)(methyl)amino]pyrimidin-4-yl}oxy)-1-naphthyl]-3-fluoro-5-piperidin-1-ylbenzamide], the melting point is 135 to 136 °C. In addition, the IC50 in data set [1] turned out to be 0.254 µM. The IC50 on p38α was 0.0483 µM.

Compound `CC1CCCN1c1nccc(Oc2ccc(NC(=O)c3cc(F)cc(N4CCCCC4)c3)c3ccccc23)n1` (stereo not drawn) [Compound B404, 3-Fluoro-N-(4-{[2-(2-methylpyrrolidin-1-yl)pyrimidin-4-yl]oxy}-1-naphthyl)-5-piperidin-1-ylbenzamide] displayed a melting point of 93 to 94 °C. For the same compound, in data set [1], the IC50 was 1.12 µM. Further, the IC50 at p38α was determined as 0.151 µM.

The compound `CN(C)[C@@H]1CCN(c2nccc(Oc3ccc(NC(=O)c4cc(F)cc(N5CCCCC5)c4)c4ccccc34)n2)C1` [Compound B405, N-[4-({2-[(3R)-3-(Dimethylamino)pyrrolidin-1-yl]pyrimidin-4-yl}oxy)-1-naphthyl]-3-fluoro-5-piperidin-1-ylbenzamide] displayed a melting point of 93 to 94 °C. Further, in data set [1], the IC50 was 0.202 µM. In addition, the IC50 on p38α was found to be 0.0304 µM.

Compound `C#CCN(C)c1nccc(Oc2ccc(NC(=O)c3cc(F)cc(N4CCCCC4)c3)c3ccccc23)n1` [Compound B407, 3-Fluoro-N-[4-({2-[methyl(prop-2-yn-1-yl)amino]pyrimidin-4-yl}oxy)-1-naphthyl]-5-piperidin-1-ylbenzamide] registered a melting point of 116 to 117 °C. For the same compound, the IC50 in data set [1] was found to be 0.7 µM. Moreover, the IC50 at p38α turned out to be 0.0561 µM.

Regarding `CC(C)(C)OC(=O)NC1CCN(c2nccc(Oc3ccc(NC(=O)c4cc(F)cc(N5CCCCC5)c4)c4ccccc34)n2)CC1` [Compound B410, tert-Butyl{1-[4-({4-[(3-fluoro-5-piperidin-1-ylbenzoyl)amino]-1-naphthyl}oxy)pyrimidin-2-yl]piperidin-4-yl}carbamate], the melting point is 211 to 212 °C. Further, the IC50 in data set [1] is over 1 µM. For the same compound, the IC50 on p38α was found to be 0.0909 µM.

`O=C(Nc1ccc(Oc2ccnc(NCC3OCCO3)n2)c2ccccc12)c1cc(F)cc(N2CCCCC2)c1` [Compound B411, N-[4-({2-[(1,3-Dioxolan-2-ylmethyl)amino]pyrimidin-4-yl}oxy)-1-naphthyl]-3-fluoro-5-piperidin-1-ylbenzamide] yielded a melting point of 96 to 98 °C. In data set [1], the IC50 stood at 0.0235 µM. The IC50 at p38α amounted to 0.0017 µM.
